Measurements as given in patent US20190008797A1, “ESTROGEN RECEPTOR ALPHA COLIGANDS, AND METHODS OF USE THEREOF” (priority 2016, published 2019).

Tests used:
[1] = molecular target: T1, hAR (Homo sapiens, UniProt P10275); experiment: TAT3-luciferase reporter, U2OS cells cotransfected with hAR; assay type: cell-based; conditions: 5 μM + 10 nM dihydrotestosterone, 24 hours
T1 construct: expressed in transfected cells; host or cells: U2OS
T1 sequence (P10275 1-920): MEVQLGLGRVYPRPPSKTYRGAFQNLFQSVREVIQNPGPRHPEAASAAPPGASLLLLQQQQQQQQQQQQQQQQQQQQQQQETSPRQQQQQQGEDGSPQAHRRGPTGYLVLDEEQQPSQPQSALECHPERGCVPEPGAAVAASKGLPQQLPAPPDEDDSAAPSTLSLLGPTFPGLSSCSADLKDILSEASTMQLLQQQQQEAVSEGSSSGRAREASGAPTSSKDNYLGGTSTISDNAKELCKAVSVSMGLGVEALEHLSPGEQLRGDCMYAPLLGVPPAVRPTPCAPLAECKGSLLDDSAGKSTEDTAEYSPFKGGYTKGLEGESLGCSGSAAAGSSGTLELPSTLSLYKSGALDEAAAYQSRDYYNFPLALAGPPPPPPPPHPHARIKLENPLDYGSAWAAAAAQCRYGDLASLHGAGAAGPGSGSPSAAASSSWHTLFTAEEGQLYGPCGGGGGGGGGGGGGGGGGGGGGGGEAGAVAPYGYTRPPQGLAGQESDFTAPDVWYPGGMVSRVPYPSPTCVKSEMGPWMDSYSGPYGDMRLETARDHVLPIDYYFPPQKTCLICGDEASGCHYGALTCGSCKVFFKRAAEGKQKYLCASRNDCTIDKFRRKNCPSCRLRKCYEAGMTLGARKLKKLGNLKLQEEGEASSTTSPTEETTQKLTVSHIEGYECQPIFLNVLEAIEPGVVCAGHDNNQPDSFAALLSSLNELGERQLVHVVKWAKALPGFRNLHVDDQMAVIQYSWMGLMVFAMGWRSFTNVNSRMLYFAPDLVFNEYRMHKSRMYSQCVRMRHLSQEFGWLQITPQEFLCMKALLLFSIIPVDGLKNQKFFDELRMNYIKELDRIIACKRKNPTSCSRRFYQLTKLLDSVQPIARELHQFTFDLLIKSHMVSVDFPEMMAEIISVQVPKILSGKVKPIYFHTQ

[2] = molecular target: ERα (Homo sapiens, UniProt P03372); experiment: NKG2E-TK-Luc transfection assay, U2OS cells cotransfected with ERα; assay type: cell-based; design: expressed in transfected cells; host or cells: U2OS
ERα, sequence (P03372 whole entry): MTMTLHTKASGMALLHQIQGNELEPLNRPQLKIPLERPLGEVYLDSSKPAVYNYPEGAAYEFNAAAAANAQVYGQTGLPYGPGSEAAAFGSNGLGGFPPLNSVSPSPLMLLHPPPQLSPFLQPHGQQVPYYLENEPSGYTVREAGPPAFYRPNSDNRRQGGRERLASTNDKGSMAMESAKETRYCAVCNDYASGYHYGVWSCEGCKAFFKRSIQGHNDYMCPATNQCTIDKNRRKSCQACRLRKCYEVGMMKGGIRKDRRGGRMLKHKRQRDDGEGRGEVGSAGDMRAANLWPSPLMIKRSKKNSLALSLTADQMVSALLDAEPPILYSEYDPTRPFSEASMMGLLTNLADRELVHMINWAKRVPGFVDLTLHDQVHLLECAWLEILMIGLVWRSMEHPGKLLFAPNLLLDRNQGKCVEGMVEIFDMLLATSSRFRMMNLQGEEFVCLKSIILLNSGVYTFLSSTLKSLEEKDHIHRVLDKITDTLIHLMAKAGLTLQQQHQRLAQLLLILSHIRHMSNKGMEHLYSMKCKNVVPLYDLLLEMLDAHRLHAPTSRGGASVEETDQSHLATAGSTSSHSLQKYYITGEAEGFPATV
Method: FIG. 7a-7e. […] (C) U2OS cells cotransfected with GRE-TK-Luc and human (h) GR and treated with 10 nM of dexamethasone (Dex) and 5 μM of 2′, 3′, 4′-THC alone or in combination for 24 hours. (D) U2OS cells cotransfected with human tyrosine aminotransferase (TATS)-luciferase reporter gene and hAR and treated with 10 nM of dihydrotestosterone (DHT) and 5 μM of 2′, 3′, 4′-THC alone or in combination for 24 hours. (E) U2OS cells cotransfected with TAT3-luciferase reporter gene and hPR-B and treated with 10 nM of progesterone (Prog) and 5 μM of 2′, 3′, 4′-THC alone or in combination for 24 hours. After transfection, luciferase activities were measured as described in the Methods. RLU is relative light units and the data shown are mean±SEM.
(FIGS. 6a, 6b) Gene expression of (FIG. 6a) KRT73 and (FIG. 6b) NKG2E in U2OS-ERα cells treated with 10 nM estradiol, 5 μM 2′, 3′, 4′-THC, 1μM ICI alone or in combination for 24 hours. […] Error bars are ±SEM. […] After transfection, luciferase activities were measured as described in the Methods. RLU is relative light units and the data shown are mean ±SEM. (FIG. 6c). […] After transfection, luciferase activities were measured as described in the Methods. RLU is relative light units and the data shown are mean ±SEM (FIG. 6d).

[3] = system: mouse uterus; experiment: Ovariectomized (OVX) mouse model, osmotic pump; assay type: in vivo; conditions: OVX mice
Method: 8 week old C57b1/6J female ovariectomized or intact mice were purchased from Jackson Laboratories, Sacramento, Calif. Mice were housed and maintained according to OLAC standard procedures in the NAF facility at UC Berkeley, Calif. All mice were fed a soy-free chow diet 2916.15 (Harlan Laboratories, Livermore, Calif.) starting one week before osmotic pump implantation or 2′, 3′, 4′-THC injection. Pumps Model 2006 were purchased from Alzet and filled with vehicle, 1 μg […], 2 mg of 2′, 3′, 4′-THC or the combination of 2′, 3′, 4′-THC and estradiol. All drugs were dissolved in sterile vehicle consisting of 50% dimethylsulfoxide (DMSO), 25% ETOH and 25% deionized water. Pumps were handled with sterile gloves and filled using a 27 gauge filling tube and 1 mL syringe. All pumps were placed in 1X PBS in 15 mL sterile conical tubes and incubated overnight at 37° . Pumps were surgically implanted into 8 week old C57b1/6J female ovariectomized mice (Jackson Laboratory, Sacramento, Calif.) posterior to the scapula and left for a duration of 4 weeks. Intact mice were injected intraperitoneal with 2′, 3′, 4′-THC every day for 3 weeks. Mice were weighed once a week for the duration of the experiment. The intraperitoneal gonadal fat was removed and weighed. Uterine tissue was collected, fluid drained and then weighed.
Tissues were dissected and immediately frozen in liquid nitrogen. Before RNA isolation, tissues were homogenized in PureZOL™ using the MP FastPrep™-24 for 40 seconds.
Uterine Tissue Slide Preparation Uterine tissue was removed and trimmed of excess adipose tissue. Tissues were fixed in formalin for 24 hours then transferred to 50% ETOH for 1 hour followed by 70% ethanol (ETOH) for another hour. After fixation tissues were sent to Histopathology Reference Laboratory, Hercules Calif. where they were paraffin embedded, sectioned and stained with hematoxylin and eosin for morphological exam
FIGS. 5a-5h. 2′, 3′, 4′-THC acts as antagonist in the mouse uterus. Uterine weights of intact (FIG. 5a) and OVX (FIG. 5b) mice. […] (FIG. 5h) Total body weight of OVX mice after 4 week treatment. Error bars are ±SEM.

[4] = molecular target: T2, ERα LBD (Homo sapiens, UniProt P03372); assay type: binding; conditions: 5 μM 2′,3′,4′-THC alone
T2 construct: Purified ERα LBD containing amino acids 315-545 used by Brzozowski et al; histidine-tag; purchased GenScript
T2 sequence (P03372 315-545): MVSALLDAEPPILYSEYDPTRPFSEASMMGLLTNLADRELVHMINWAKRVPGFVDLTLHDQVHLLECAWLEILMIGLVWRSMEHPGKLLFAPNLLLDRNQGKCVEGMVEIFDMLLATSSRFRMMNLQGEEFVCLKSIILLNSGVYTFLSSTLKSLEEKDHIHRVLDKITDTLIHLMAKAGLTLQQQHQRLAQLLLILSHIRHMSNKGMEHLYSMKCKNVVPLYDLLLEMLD

`O=C(/C=C/c1ccccc1)c1ccc(O)c(O)c1O` [2′, 3′, 4′-THC, 2′, 3′, 4′-trihydroxychalcone] was tested, and the “synergy with receptor agonist” value [1] was “no synergy”, the “response of NKG2E-TK-Luc with E2” value ([2]; 1 μM 2′,3′,4′-THC) was “synergistic response” and the “response of NKG2E-TK-Luc with E2” value ([2]; 5 μM 2′,3′,4′-THC) was “maximal response”. For the same molecule, the “synergistic activation of NKG2E-TK-Luc in combination with E2, tamoxifen or raloxifene” value ([2]; 5 μM, 10 nM E2, 1 μM tamoxifen, 1 μM raloxifene, 24 hours) was “synergistic activation only with E2”, the “activation of NKG2E-TK-Luc, compound alone” value ([2]; 24 hours) was “No activation” and the “H & E staining of uterus, effect on E2 response” value ([3]; combination with E2, 4 weeks) was “inhibited the proliferative response”. For the same molecule, the “effect on E2-induced increase in uterine weight” value ([3]; combination with E2, 4 weeks) was “blocked”, the “effect on E2-induced increased uterine mRNA for LCN2” value ([3]; combination with E2, 4 weeks) was “antagonist effect” and the “effect on E2-induced increased uterine mRNA for LTF” value ([3]; combination with E2, 4 weeks) was “antagonist effect”. The “effect on E2-induced increased uterine mRNA for SA100A9” value ([3]; combination with E2, 4 weeks) was “antagonist effect”, the “effect on E2 decrease of gonadal adipose tissue fat” value ([3]; combination with E2, 4 weeks) was “not blocked” and the “uterine size / uterine weight, compound alone” value ([3]; osmotic pump, 4 weeks) was “did not increase”. The “melting temperature of ERα LBD” value [4] was “no effect”.
